The results in this text go back to patent US8362000B2, “Azetidinyl diamides as monoacylglycerol lipase inhibitors” (Janssen Pharmaceutica NV, priority 2009, dated 2013).

The target of assay [1] is T1, purified wild type MGL (wt-MGLL 6H-11-313) (Homo sapiens, UniProt Q99685).
T1 sequence (Q99685 1-303): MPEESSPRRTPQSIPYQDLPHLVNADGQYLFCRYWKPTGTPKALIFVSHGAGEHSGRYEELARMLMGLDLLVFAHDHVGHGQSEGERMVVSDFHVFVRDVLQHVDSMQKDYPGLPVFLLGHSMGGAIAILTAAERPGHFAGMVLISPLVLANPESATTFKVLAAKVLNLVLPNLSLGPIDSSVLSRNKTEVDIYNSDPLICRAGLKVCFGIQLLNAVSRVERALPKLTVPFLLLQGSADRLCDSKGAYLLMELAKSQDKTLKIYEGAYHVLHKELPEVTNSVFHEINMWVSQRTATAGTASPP

In a further assay the target is T2, mutant MGL (Homo sapiens, UniProt Q99685, L169S/L176S).
T2 sequence (Q99685 1-303 L169S/L176S): T1 sequence (Q99685 1-303) with L169S, L176S
Put plainly: MGL ThermoFluor assay - mutant. The assay is classed as binding. A general note: DSF heats the sample and reads unfolding from a dye or from intrinsic fluorescence.

A further assay has as its target T3, MGL (Rattus norvegicus, UniProt Q8R431).
T3 construct: one g rat brain was homogenized using a Polytron homogenizer; from tissue; host or cells: rat brain homogenate
T3 sequence (Q8R431 1-303): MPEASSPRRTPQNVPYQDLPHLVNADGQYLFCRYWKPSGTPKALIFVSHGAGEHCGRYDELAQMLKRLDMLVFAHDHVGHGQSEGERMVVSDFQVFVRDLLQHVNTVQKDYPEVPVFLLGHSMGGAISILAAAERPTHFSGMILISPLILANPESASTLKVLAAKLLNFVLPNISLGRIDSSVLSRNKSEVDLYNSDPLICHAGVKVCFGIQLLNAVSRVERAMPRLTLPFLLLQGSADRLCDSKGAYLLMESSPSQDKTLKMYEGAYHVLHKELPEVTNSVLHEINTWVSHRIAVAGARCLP
The experiment in a line: 2-AG accumulation assay in rat brain homogenate. The conditions noted are these: rat brain homogenate, 2-AG accumulation as percent of vehicle; for 2-AG accumulation, % of vehicle control at 1 µM: compound 1 μM, read-out: Rat Brain 2AG % VehCntrl (%) @ 1 μM. The assay is classed as biochemical.

Setting [2] is: ThermoFluor, compound concentration measured by qNMR, read-out: MGL mutant ThermoFluor qKd (using qNMR conc.).
Where [3] appears, read: ThermoFluor thermal stability binding assay, read-out: MGL mutant ThermoFluor Kd.
Setting [4] is: ThermoFluor concentration-response, read-out: MGL mutant ThermoFluor Kd.
Where [5] appears, read: ThermoFluor, compound concentration measured by qNMR, read-out: MGL mutant ThermoFluor qKd (μM) (using qNMR conc.).
The mark [6] stands for this setting: compound concentration measured by qNMR, read-out: MGL mutant ThermoFluor qKd (using qNMR conc.).

Numbering of substitutions follows the chain as printed. Where two headings read alike, the source gives them in different places.

What is called IC50 is the concentration that inhibits the measured activity by half. Low readings indicate inhibition by little substance, high ones a need for much substance. `CCCN(CCC)S(=O)(=O)c1ccc(C(=O)N2CC(N3CCN(C(=O)c4nccs4)CC3)C2)cc1` [Cpd 658] had an IC50 in assay [1] of 0.009 µM. For the same compound, the Kd on mutant MGL (setting [2]) stood at 0.402 µM. In addition, on MGL, the 2-AG accumulation, % of vehicle control at 1 µM is 351%.
In assay [1], `O=C(c1ccc2c(ccn2-c2cc(F)c(F)c(F)c2)c1)N1CC(N2CCN(C(=O)c3nccs3)CC2)C1` [Cpd 1367] returned an IC50 of under 0.005 µM. Moreover, the Kd at mutant MGL (setting [3]) came out at 0.002 µM. Moreover, the 2-AG accumulation, % of vehicle control at 1 µM at MGL was 798%.
Turning to `O=C(c1ccc(Sc2cccc(C(F)(F)F)c2)cc1)N1CC(N2CCN(C(=O)c3cscn3)CC2)C1` [Cpd 432], the IC50 in assay [1] was under 0.005 µM. In addition, the Kd on mutant MGL (setting [4]) is 0.025 µM. The 2-AG accumulation, % of vehicle control at 1 µM at MGL is 321%.
As for `O=C(c1ccc(-c2ccccc2)cc1)N1CC(N2CCN(C(=O)c3cccs3)CC2)C1` [Cpd 13, 1-[1-(Biphenyl-4-ylcarbonyl)azetidin-3-yl]-4-(thiophen-2-ylcarbonyl)piperazine], in assay [1], half-maximal inhibition (IC50) was put at 0.0192 µM. Further, on mutant MGL (setting [4]), the Kd was 0.003 µM. Moreover, the 2-AG accumulation, % of vehicle control at 10 µM on MGL (compound 10 μM, read-out: Rat Brain 2AG % VehCntrl (%) @ 10 μM) is 730%.
In assay [1], `Cc1c(C(=O)N2CC(N3CCN(C(=O)c4nccs4)CC3)C2)sc2nc(C(F)(F)F)ccc12` [Cpd 686] showed an IC50 of 0.039 µM. Further, the Kd at mutant MGL (setting [5]) worked out at 0.002 µM. Further, at MGL, the 2-AG accumulation, % of vehicle control at 1 µM was 552%.
Consider `O=C(c1ccoc1)N1CCN(C2CN(C(=O)c3ccc(-c4ccccc4)cc3)C2)CC1` [Cpd 1140], for which the IC50 in assay [1] stood at 0.027 µM. Besides, the Kd at mutant MGL (setting [3]) was 0.112 µM. For the same compound, the 2-AG accumulation, % of vehicle control at 1 µM on MGL worked out at 200%.
In the case of `O=C(c1ccc(Oc2cccc(C(F)(F)F)c2)cc1)N1CC(N2CCN(C(=O)c3nccs3)CC2)C1` [Cpd 424, 1-(1,3-Thiazol-2-ylcarbonyl)-4-[1-({4-[3-(trifluoromethyl)phenoxy]phenyl}carbonyl)azetidin-3-yl]piperazine], the IC50 in assay [1] is under 0.005 µM. Also, at mutant MGL (setting [4]), the Kd is 0.00941 µM. For the same compound, the 2-AG accumulation, % of vehicle control at 1 µM on MGL came to 436%.
Regarding `O=C(c1ccc(-c2nc(-c3ccc(Cl)c(Cl)c3)cs2)cc1)N1CC(N2CCN(C(=O)c3nccs3)CC2)C1` [Cpd 1331], in assay [1], the IC50 was under 0.005 µM. Moreover, the Kd at mutant MGL (setting [2]) came to 0.01 µM. In addition, at MGL, the 2-AG accumulation, % of vehicle control at 1 µM worked out at 803%.
For the compound `O=C(c1cnc2c(ccn2-c2ccc(F)cc2)c1)N1CC(N2CCN(C(=O)c3nccs3)CC2)C1` [Cpd 1056], it took 0.006 µM to reach half-maximal inhibition in assay [1] (IC50). Besides, the Kd on mutant MGL (setting [5]) is 0.012 µM. Besides, the 2-AG accumulation, % of vehicle control at 1 µM on MGL is 498%.
As to `O=C(c1ccc2c(c1)CCN(c1ncccn1)C2)N1CC(N2CCN(C(=O)c3nccs3)CC2)C1` [Cpd 668], the IC50 in assay [1] is 0.015 µM. Besides, on mutant MGL (setting [3]), the Kd turned out to be 0.025 µM. In addition, on MGL, the 2-AG accumulation, % of vehicle control at 1 µM was 679%.
`Cc1cc(C(=O)N2CC(N3CCN(C(=O)c4nccs4)CC3)C2)sc1-c1cccc(F)c1` [Cpd 1065]: inhibition in assay [1] was half-maximal at 0.007 µM (IC50). In addition, the Kd at mutant MGL (setting [5]) is 0.036 µM. For the same compound, the 2-AG accumulation, % of vehicle control at 1 µM at MGL was found to be 531%.
`N#Cc1ccccc1-n1ccc2cc(C(=O)N3CC(N4CCN(C(=O)c5nccs5)CC4)C3)ccc21` [Cpd 1109] returned an IC50 in assay [1] of 0.015 µM. In addition, at mutant MGL (setting [3]), the Kd is 0.022 µM. Also, the 2-AG accumulation, % of vehicle control at 1 µM on MGL was 680%.
Take `Cc1c(C(=O)N2CC(N3CCN(C(=O)c4ccccc4)CC3)C2)sc2ccc(-c3ccccc3)cc12` [Cpd 570, 1-{1-[(3-Methyl-5-phenyl-1-benzothiophen-2-yl)carbonyl]azetidin-3-yl}-4-(phenylcarbonyl)piperazine]: the IC50 in assay [1] is 0.022 µM. Also, at mutant MGL (setting [4]), the Kd was determined as 0.03 µM. The 2-AG accumulation, % of vehicle control at 1 µM on MGL was 210%.
Take `Cc1ccc(-n2ccc3cc(C(=O)N4CC(N5CCN(C(=O)C(F)(F)F)CC5)C4)ccc32)nc1` [Cpd 1184, 1-(5-Methylpyridin-2-yl)-5-({3-[4-(trifluoroacetyl)piperazin-1-yl]azetidin-1-yl}carbonyl)-1H-indole]: the IC50 in assay [1] came to 0.086 µM. Moreover, the Kd at mutant MGL (setting [2]) came out at 0.244 µM. Further, the 2-AG accumulation, % of vehicle control at 1 µM at MGL is 401%.
Regarding `O=C(c1cccc(-c2ccccc2C(F)(F)F)c1)N1CC(N2CCN(C(=O)c3cscn3)CC2)C1` [Cpd 1185], in assay [1], the IC50 amounted to 0.088 µM. For the same compound, the Kd on mutant MGL (setting [4]) came out at 1.32 µM. Besides, on MGL, the 2-AG accumulation, % of vehicle control at 1 µM was 241%.
The matching figures for `O=C(c1ccc(-n2nc3c(c2-c2ccc(Cl)cc2)CCCC3)cc1)N1CC(N2CCN(C(=O)c3nccs3)CC2)C1` [Cpd 1327]: under 0.005 µM, 0.005 µM and 966%.
In the case of `O=C(c1cc(-c2ccccc2)cc(C(F)(F)F)c1)N1CC(N2CCN(C(=O)c3nccs3)CC2)C1` [Cpd 1144, 1-(1,3-Thiazol-2-ylcarbonyl)-4-(1-{[5-(trifluoromethyl)biphenyl-3-yl]carbonyl}azetidin-3-yl)piperazine], in assay [1], the IC50 was determined as 0.031 µM. The Kd on mutant MGL (setting [4]) was found to be 0.181 µM. In addition, the 2-AG accumulation, % of vehicle control at 1 µM on MGL was 212%.
`Cc1c(C(=O)N2CC(N3CCN(C(=O)c4nccs4)CC3)C2)cccc1-c1ccccc1` [Cpd 1234] registered an IC50 in assay [1] of 0.356 µM. At mutant MGL (setting [4]), the Kd was 0.394 µM. Also, the 2-AG accumulation, % of vehicle control at 1 µM at MGL was determined as 226%.
`Cn1ccc2cc(C(=O)N3CC(N4CCN(C(=O)c5nccs5)CC4)C3)cc(Br)c21` [Cpd 681] registered an IC50 in assay [1] of 0.027 µM. In addition, the Kd at mutant MGL (setting [5]) is 0.067 µM. Moreover, the 2-AG accumulation, % of vehicle control at 1 µM on MGL came to 406%.
With `O=C(c1cc2cc(C(F)(F)F)ccc2s1)N1CCN(C2CN(C(=O)c3nccs3)C2)CC1` [Cpd 676, 1-[1-(1,3-Thiazol-2-ylcarbonyl)azetidin-3-yl]-4-{[5-(trifluoromethyl)-1-benzothiophen-2-yl]carbonyl}piperazine], in assay [1], half-maximal inhibition (IC50) was put at 0.021 µM. Moreover, the Kd at mutant MGL (setting [4]) was 0.029 µM. Moreover, the 2-AG accumulation, % of vehicle control at 1 µM at MGL was determined as 437%.
With `O=C(c1nccs1)N1CCN(C2CN(C(=O)c3cc4ccn(-c5ccc(F)cc5)c4cc3F)C2)CC1` [Cpd 1349], in assay [1], the IC50 is under 0.005 µM. Further, the Kd on mutant MGL (setting [4]) was found to be 0.005 µM; on mutant MGL (setting [6]) it was 0.006 µM. Also, the 2-AG accumulation, % of vehicle control at 1 µM at MGL was found to be 846%.
In assay [1], `O=C(c1ccc2c(c1)CCN2Cc1cccc(C(F)(F)F)c1)N1CC(N2CCN(C(=O)c3nccs3)CC2)C1` [Cpd 881] came in with an IC50 of under 0.005 µM. The Kd at mutant MGL (setting [4]) turned out to be 0.006 µM. The 2-AG accumulation, % of vehicle control at 1 µM at MGL came out at 847%.
The compound `O=C(c1ccccc1)N1CCN(C2CN(C(=O)c3sc4ccc(Cl)cc4c3C(F)(F)F)C2)CC1` [Cpd 506] gave an IC50 in assay [1] of 0.048 µM. Moreover, the Kd at mutant MGL (setting [4]) was 0.059 µM. Besides, the 2-AG accumulation, % of vehicle control at 1 µM at MGL worked out at 132%.
The compound `C/C(=C\c1ccc(Cl)cc1)c1c(C)c(C(=O)N2CC(N3CCN(C(=O)c4ccc[nH]4)CC3)C2)nn1-c1ccc(Cl)cc1Cl` [Cpd 1011] came in with an IC50 in assay [1] of under 0.005 µM. In addition, at mutant MGL (setting [4]), the Kd is 0.124 µM. In addition, the 2-AG accumulation, % of vehicle control at 1 µM on MGL came out at 994%.
Take `O=C(c1ccc2c(ccn2-c2ccc(OC(F)(F)F)cc2)c1)N1CC(N2CCN(C(=O)c3nccs3)CC2)C1` [Cpd 1369]: in assay [1], the IC50 is under 0.005 µM. The Kd at mutant MGL (setting [5]) worked out at 0.002 µM. Further, the 2-AG accumulation, % of vehicle control at 1 µM at MGL is 874%.
Take `O=C(c1ccc2c(ccn2-c2ccc(C(F)(F)F)cc2)c1)N1CC(N2CCN(C(=O)c3ccc[nH]3)CC2)C1` [Cpd 1339, 5-({3-[4-(1H-Pyrrol-2-ylcarbonyl)piperazin-1-yl]azetidin-1-yl}carbonyl)-1-[4-(trifluoromethyl)phenyl]-1H-indole]: the IC50 in assay [1] is under 0.005 µM. Also, the Kd at mutant MGL (setting [4]) was determined as 0.013 µM. The 2-AG accumulation, % of vehicle control at 1 µM at MGL worked out at 574%.
With `O=C(c1ccc(S(=O)(=O)c2cccc(C(F)(F)F)c2)cc1)N1CC(N2CCN(C(=O)c3nccs3)CC2)C1` [Cpd 651], the IC50 in assay [1] stood at 0.007 µM. Further, the Kd at mutant MGL (setting [4]) came to 0.025 µM. The 2-AG accumulation, % of vehicle control at 1 µM at MGL stood at 258%.
In the case of `C/C(=C\c1ccc(Cl)cc1)c1c(C)c(C(=O)N2CC(N3CCN(C(=O)C(F)(F)F)CC3)C2)nn1-c1ccc(Cl)cc1Cl` [Cpd 1012], the IC50 in assay [1] is 0.013 µM. Further, on mutant MGL (setting [6]), the Kd turned out to be 3.34 µM. Moreover, the 2-AG accumulation, % of vehicle control at 1 µM on MGL turned out to be 173%.
